In paper PMC9229919, “4-Aminoquinoline-Based Adamantanes as Potential Anticholinesterase Agents in Symptomatic Treatment of Alzheimer’s Disease” (Pharmaceutics, 2022):
Like-named read-outs stand apart in the source and are kept apart here.

Key:
[1] = Reverse-phase thin-layer chromatographic lipophilicity (RF, RM0); format: physicochemical; details: for RM0: intercept of RM = RM0 + bC; for b: slope of RM = RM0 + bC; for RF, Methanol/Water/Hydrochloric acid (conc.), mobile phase I / RF, Dioxane/Water/Hydrochloric acid (conc.), mobile phase II / RF, Methanol/Water/Hydrochloric acid (conc.), mobile phase II / RF, Acetone/Water/Hydrochloric acid (conc.), mobile phase III / RF, Dioxane/Water/Hydrochloric acid (conc.), mobile phase III / RF, Methanol/Water/Hydrochloric acid (conc.), mobile phase III / RF, Dioxane/Water/Hydrochloric acid (conc.), mobile phase IV / RF, Acetone/Water/Hydrochloric acid (conc.), mobile phase IV / RF, Methanol/Water/Hydrochloric acid (conc.), mobile phase IV / RF, Acetone/Water/Hydrochloric acid (conc.), mobile phase IX / RF, Methanol/Water/Hydrochloric acid (conc.), mobile phase IX / RF, Dioxane/Water/Hydrochloric acid (conc.), mobile phase V / RF, Acetone/Water/Hydrochloric acid (conc.), mobile phase V / RF, Methanol/Water/Hydrochloric acid (conc.), mobile phase V / RF, Dioxane/Water/Hydrochloric acid (conc.), mobile phase VI / RF, Acetone/Water/Hydrochloric acid (conc.), mobile phase VI / RF, Methanol/Water/Hydrochloric acid (conc.), mobile phase VI / RF, Acetone/Water/Hydrochloric acid (conc.), mobile phase VII / RF, Methanol/Water/Hydrochloric acid (conc.), mobile phase VII / RF, Acetone/Water/Hydrochloric acid (conc.), mobile phase VIII / RF, Methanol/Water/Hydrochloric acid (conc.), mobile phase VIII: RP-18 silica; for RF, Methanol/Water/Hydrochloric acid (conc.), mobile phase I: I = 90%MeOH/5%H2O/5%HCl; for RF, Dioxane/Water/Hydrochloric acid (conc.), mobile phase II: II = 80%Dioxane/15%H2O/5%HCl; for RF, Methanol/Water/Hydrochloric acid (conc.), mobile phase II: II = 85%MeOH/10%H2O/5%HCl; for RF, Acetone/Water/Hydrochloric acid (conc.), mobile phase III: III = 70%AC/25%H2O/5%HCl; for RF, Dioxane/Water/Hydrochloric acid (conc.), mobile phase III: III = 70%Dioxane/25%H2O/5%HCl; for RF, Methanol/Water/Hydrochloric acid (conc.), mobile phase III: III = 80%MeOH/15%H2O/5%HCl; for RF, Dioxane/Water/Hydrochloric acid (conc.), mobile phase IV: IV = 60%Dioxane/35%H2O/5%HCl; for RF, Acetone/Water/Hydrochloric acid (conc.), mobile phase IV: IV = 65%AC/30%H2O/5%HCl; for RF, Methanol/Water/Hydrochloric acid (conc.), mobile phase IV: IV = 75%MeOH/20%H2O/5%HCl; for RF, Acetone/Water/Hydrochloric acid (conc.), mobile phase IX: IX = 40%AC/55%H2O/5%HCl; for RF, Methanol/Water/Hydrochloric acid (conc.), mobile phase IX: IX = 50%MeOH/45%H2O/5%HCl; for RF, Dioxane/Water/Hydrochloric acid (conc.), mobile phase V: V = 50%Dioxane/45%H2O/5%HCl; for RF, Acetone/Water/Hydrochloric acid (conc.), mobile phase V: V = 60%AC/35%H2O/5%HCl; for RF, Methanol/Water/Hydrochloric acid (conc.), mobile phase V: V = 70%MeOH/25%H2O/5%HCl; for RF, Dioxane/Water/Hydrochloric acid (conc.), mobile phase VI: VI = 40%Dioxane/55%H2O/5%HCl; for RF, Acetone/Water/Hydrochloric acid (conc.), mobile phase VI: VI = 55%AC/40%H2O/5%HCl; for RF, Methanol/Water/Hydrochloric acid (conc.), mobile phase VI: VI = 65%MeOH/30%H2O/5%HCl; for RF, Acetone/Water/Hydrochloric acid (conc.), mobile phase VII: VII = 50%AC/45%H2O/5%HCl; for RF, Methanol/Water/Hydrochloric acid (conc.), mobile phase VII: VII = 60%MeOH/35%H2O/5%HCl; for RF, Acetone/Water/Hydrochloric acid (conc.), mobile phase VIII: VIII = 45%AC/50%H2O/5%HCl; for RF, Methanol/Water/Hydrochloric acid (conc.), mobile phase VIII: VIII = 55%MeOH/40%H2O/5%HCl
In short: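 Lipophilicity from RP-TLC retention at 22±2 °C over a 4.5 cm development distance. Eluents: organic modifier (methanol, acetone or dioxane), water and hydrochloric acid, methanol stepped by 10%. RM0 obtained from RF.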

[2] = Ferric reducing antioxidant power (FRAP) assay; details: for FRAP: mean ± standard error of three experiments; for antioxidant power lower than that of Trolox: on average;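 as to FRAP: expressed as µM Fe2+ equivalents from an FeSO4·7H2O standard curve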
In short: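 Ferric-TPTZ reduction measured by absorbance at 593 nm after 60 min at 37 °C in pH 3.6 acetate-buffered TPTZ/FeCl3 reagent, with test compounds at 10 and 100 µM. FRAP values calculated from an Fe2SO4·7H2O standard curve. Data from three independent experiments.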

purified human BChE = target: T1, purified human BChE (Homo sapiens, UniProt P06276); assay: biochemical; format: biochemical
T1 construct: possibly also a gift of Dr Florian Nachon (the sentence is ambiguous)
T1 sequence (P06276 29-602): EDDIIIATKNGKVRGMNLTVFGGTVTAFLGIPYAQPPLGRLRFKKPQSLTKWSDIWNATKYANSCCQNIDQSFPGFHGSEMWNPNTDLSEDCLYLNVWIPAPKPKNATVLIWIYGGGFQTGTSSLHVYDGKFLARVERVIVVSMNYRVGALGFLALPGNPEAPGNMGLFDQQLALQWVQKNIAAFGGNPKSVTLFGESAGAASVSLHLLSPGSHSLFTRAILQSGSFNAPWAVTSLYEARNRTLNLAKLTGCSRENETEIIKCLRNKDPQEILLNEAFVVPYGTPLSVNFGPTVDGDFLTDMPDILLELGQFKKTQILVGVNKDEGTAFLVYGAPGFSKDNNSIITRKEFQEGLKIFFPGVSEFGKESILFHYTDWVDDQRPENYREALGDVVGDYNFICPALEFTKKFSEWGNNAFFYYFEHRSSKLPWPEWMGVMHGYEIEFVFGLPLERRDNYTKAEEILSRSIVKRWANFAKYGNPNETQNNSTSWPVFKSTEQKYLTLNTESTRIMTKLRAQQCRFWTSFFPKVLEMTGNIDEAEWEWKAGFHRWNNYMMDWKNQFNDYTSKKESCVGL
In short: (§1)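 Modified Ellman assay with acetylthiocholine and DTNB in 0.1 M sodium phosphate pH 7.4 (enzymes diluted with 0.1% BSA), ≤0.2% DMSO, 25 °C. At least three inhibitor concentrations per substrate level; Ki,app from Hunter–Downs equation, Ki from y-intercept and inhibition type from Ki,app vs [S].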

recombinant human AChE = target: T2, recombinant human AChE (Homo sapiens, UniProt P22303); assay: biochemical; format: biochemical; details: for IS: IS = Ki(BChE)/Ki(AChE), IS > 1 selective to AChE
T2 construct: gift of Dr Florian Nachon (Armed Forces Biomedical Research Institute, Brétigny-sur-Orge, France)
T2 sequence (P22303 32-614): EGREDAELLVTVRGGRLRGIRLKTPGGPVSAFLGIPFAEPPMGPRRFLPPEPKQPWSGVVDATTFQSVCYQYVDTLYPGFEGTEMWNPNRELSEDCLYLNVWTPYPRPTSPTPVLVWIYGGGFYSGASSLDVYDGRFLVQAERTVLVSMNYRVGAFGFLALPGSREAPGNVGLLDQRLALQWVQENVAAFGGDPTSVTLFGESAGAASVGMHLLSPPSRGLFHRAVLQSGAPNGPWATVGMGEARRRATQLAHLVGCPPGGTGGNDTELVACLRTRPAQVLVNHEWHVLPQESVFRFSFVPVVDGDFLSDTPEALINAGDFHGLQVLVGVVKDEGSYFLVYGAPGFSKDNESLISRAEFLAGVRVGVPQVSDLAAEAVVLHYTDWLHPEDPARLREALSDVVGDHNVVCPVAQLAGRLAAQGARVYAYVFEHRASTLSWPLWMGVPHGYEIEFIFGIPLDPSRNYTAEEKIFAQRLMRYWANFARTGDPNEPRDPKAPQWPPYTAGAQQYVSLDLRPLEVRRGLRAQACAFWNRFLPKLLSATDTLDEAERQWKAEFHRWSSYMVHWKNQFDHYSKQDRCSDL
In short: as §1

[3] = Acetone/Water/Hydrochloric acid (conc.)
[4] = Dioxane/Water/Hydrochloric acid (conc.)
[5] = Methanol/Water/Hydrochloric acid (conc.)
[6] = logarithm of Ki in µM, BChE, dependent variable of the QSAR model, read-out: Y Measured 2 log(ki)Bche, log (Ki/µM BChE) (converted)
[7] = ± standard error, 25 °C, ATCh substrate, read-out: Ki BChE
[8] = log (Ki/µM AChE), read-out: Y Measured 1 log(ki)Ache (converted)
[9] = ± standard error, 25 °C, ATCh substrate, read-out: Ki AChE

Row | SMILES | RM0 [1, 3] | b [1, 3] | RM0 [1, 4] | b [1, 4] | RM0 [1, 5] | b [1, 5] | RF, Methanol/Water/Hydrochloric acid (conc.), mobile phase I [1] | RF, Dioxane/Water/Hydrochloric acid (conc.), mobile phase II [1] | RF, Methanol/Water/Hydrochloric acid (conc.), mobile phase II [1] | RF, Acetone/Water/Hydrochloric acid (conc.), mobile phase III [1] | RF, Dioxane/Water/Hydrochloric acid (conc.), mobile phase III [1] | RF, Methanol/Water/Hydrochloric acid (conc.), mobile phase III [1] | RF, Dioxane/Water/Hydrochloric acid (conc.), mobile phase IV [1] | RF, Acetone/Water/Hydrochloric acid (conc.), mobile phase IV [1] | RF, Methanol/Water/Hydrochloric acid (conc.), mobile phase IV [1] | RF, Acetone/Water/Hydrochloric acid (conc.), mobile phase IX [1] | RF, Methanol/Water/Hydrochloric acid (conc.), mobile phase IX [1] | RF, Dioxane/Water/Hydrochloric acid (conc.), mobile phase V [1] | RF, Acetone/Water/Hydrochloric acid (conc.), mobile phase V [1] | RF, Methanol/Water/Hydrochloric acid (conc.), mobile phase V [1] | also measured
1 | Clc1ccc2c(Nc3ccc(NCC45CC6CC(CC(C6)C4)C5)cc3)ccnc2c1 [Compound 17] | 2.018 | 3.21 | 0.9452 | 1.898 | 2.643 | 3.504 | 0.73 | 0.75 | 0.69 | 0.59 | 0.71 | 0.54 | 0.71 | 0.54 | 0.53 | 0.11 | 0.09 | 0.49 | 0.44 | 0.45 | RF, Dioxane/Water/Hydrochloric acid (conc.), mobile phase VI [1]: 0.35; RF, Acetone/Water/Hydrochloric acid (conc.), mobile phase VI [1]: 0.39; RF, Methanol/Water/Hydrochloric acid (conc.), mobile phase VI [1]: 0.35; RF, Acetone/Water/Hydrochloric acid (conc.), mobile phase VII [1]: 0.33; RF, Methanol/Water/Hydrochloric acid (conc.), mobile phase VII [1]: 0.24; RF, Acetone/Water/Hydrochloric acid (conc.), mobile phase VIII [1]: 0.25; RF, Methanol/Water/Hydrochloric acid (conc.), mobile phase VIII [1]: 0.15; FRAP ([2]; 10 µM compound): 53 ± 4 µM; FRAP ([2]; 100 µM compound): 512 ± 117 µM; antioxidant power lower than that of Trolox [2]: ~10 times; decrease in BChE inhibition vs compound 5 (purified human BChE): up to 275 times; Ki (purified human BChE; [6]): 2.5 µM; Ki (purified human BChE; [7]): 2.5 ± 0.5 µM; IS (recombinant human AChE): 0.8; Ki (recombinant human AChE; [8]): 3.3 µM; Ki (recombinant human AChE; [9]): 3.3 ± 0.4 µM
2 | Clc1ccc2c(Nc3cccc(NCC45CC6CC(CC(C6)C4)C5)c3)ccnc2c1 [Compound 18] | 2.074 | 3.191 | 1.102 | 2.114 | 2.664 | 3.468 | 0.71 | 0.75 | 0.68 | 0.55 | 0.71 | 0.5 | 0.7 | 0.5 | 0.49 | 0.1 | 0.09 | 0.48 | 0.4 | 0.41 | RF, Dioxane/Water/Hydrochloric acid (conc.), mobile phase VI [1]: 0.3; RF, Acetone/Water/Hydrochloric acid (conc.), mobile phase VI [1]: 0.36; RF, Methanol/Water/Hydrochloric acid (conc.), mobile phase VI [1]: 0.34; RF, Acetone/Water/Hydrochloric acid (conc.), mobile phase VII [1]: 0.3; RF, Methanol/Water/Hydrochloric acid (conc.), mobile phase VII [1]: 0.22; RF, Acetone/Water/Hydrochloric acid (conc.), mobile phase VIII [1]: 0.21; RF, Methanol/Water/Hydrochloric acid (conc.), mobile phase VIII [1]: 0.13; FRAP ([2]; 10 µM compound): 22 ± 6 µM; FRAP ([2]; 100 µM compound): 300 ± 32 µM; antioxidant power lower than that of Trolox [2]: ~20 times; decrease in BChE inhibition vs compound 5 (purified human BChE): up to 275 times; Ki (purified human BChE; [6]): 5.5 µM; Ki (purified human BChE; [7]): 5.5 ± 0.6 µM; IS (recombinant human AChE): 0.6; Ki (recombinant human AChE; [8]): 8.99 µM; Ki (recombinant human AChE; [9]): 9 ± 0.8 µM
3 | Clc1ccc2c(N3CCN(CC45CC6CC(CC(C6)C4)C5)CC3)ccnc2c1 [Compound 20] | 1.432 | 2.592 | 0.3825 | 1.224 | 1.5449 | 2.158 | 0.67 | 0.75 | 0.7 | 0.69 | 0.76 | 0.58 | 0.78 | 0.65 | 0.56 | 0.28 | 0.22 | 0.63 | 0.58 | 0.48 | RF, Dioxane/Water/Hydrochloric acid (conc.), mobile phase VI [1]: 0.5; RF, Acetone/Water/Hydrochloric acid (conc.), mobile phase VI [1]: 0.51; RF, Methanol/Water/Hydrochloric acid (conc.), mobile phase VI [1]: 0.45; RF, Acetone/Water/Hydrochloric acid (conc.), mobile phase VII [1]: 0.42; RF, Methanol/Water/Hydrochloric acid (conc.), mobile phase VII [1]: 0.38; RF, Acetone/Water/Hydrochloric acid (conc.), mobile phase VIII [1]: 0.35; RF, Methanol/Water/Hydrochloric acid (conc.), mobile phase VIII [1]: 0.31; FRAP ([2]; 10 µM compound): 2.9 ± 1.1 µM; FRAP ([2]; 100 µM compound): 6.3 ± 1.6 µM; decrease in BChE inhibition vs compound 5 (purified human BChE): up to 275 times; Ki (purified human BChE; [6]): 25.1 µM; Ki (purified human BChE; [7]): 25 ± 1 µM; IS (recombinant human AChE): 2.7; Ki (recombinant human AChE; [8]): 9.4 µM; Ki (recombinant human AChE; [9]): 9.4 ± 0.4 µM
